Here are results for 20 compounds from US10316021B2, “Heteroarylphenoxy benzamide kappa opioid ligands” (Pfizer Inc., priority 2016, dated 2019).

Experiment [1] addresses T1, human kappa opioid receptor (hKOR) (Homo sapiens, UniProt P41145).
T1 construct: expressed in transfected cells; host or cells: CHO cells
Nature of the experiment: Kappa radioligand binding assay ([3H]diprenorphine, CHO cell membranes). The note with it: for Selectivity hMOR/hKOR: selectivity ratio calculated by dividing the hMOR Ki by the hKOR Ki. Here is the method: (§1) Kappa and Mu Radioligand Binding Assay:
(§2) Binding assays on membranes from CHO cells expressing human kappa or mu opioid receptors were performed according to standard procedures. Frozen cell paste was homogenized in 50 mM Tris HCl buffer (pH 7.4 @ 4 degrees C.) containing 2.0 mM MgCl2 using a Polytron and spun in a centrifuge at 40,000 g for ten minutes. The final pellet was resuspended in assay buffer (50 mM Tris HCl buffer, pH 7.4, containing 1 mM EDTA, 5 mM MgCl2). Incubations were initiated by the addition of membranes to 96-well plates containing test drugs and [^3H]diprenorphine (0.6 nM final concentration for kappa opioid receptor and 0.5 nM final concentration for mu) in a final volume of 250 μl. Non-specific binding was determined by radioligand binding in the presence of a saturating concentration of naltrexone (10 μM). After a one hour incubation period at room temperature, assay samples were rapidly filtered through PEI coated, GF/B fired Unifilter plates (PerkinElmer) and rinsed with ice-cold 50 mM Tris buffer (pH 7.4). Membrane bound [^3H]diprenorphine levels were determined by liquid scintillation counting of the filterplates in Ecolume scintillation fluid. The IC50 value (concentration at which 50% inhibition of specific binding occurs) was calculated using a logistic 4 parameter fit model of the concentration-response data. Ki values were calculated according to the Cheng Prusoff equation, Ki=IC50/(1+(L/Kd)), where L is the concentration of the radioligand used in the experiment and the Kd value is the dissociation constant for the radioligand (determined previously by saturation analysis).

Experiment [2] has as its target T2, human mu opioid receptor (hMOR) (Homo sapiens, UniProt P35372).
T2 construct: expressed in transfected cells; host or cells: CHO cells
Nature of the experiment: Mu radioligand binding assay ([3H]diprenorphine, CHO cell membranes). The method, then: as §1
as §2, with “The IC50 value (concentration at which 50% inhibition of specific binding occurs) was calculated using a logistic 4 parameter fit model of the concentration-response data.” left out

Where [3] appears, read: Table 19, geometric mean of 2-6 determinations unless otherwise indicated (Example 3: >=7), read-out: hKOR binding assay Ki.
Where [4] appears, read: Table 19, geometric mean of 2-6 determinations unless otherwise indicated (Example 3: >=7), read-out: hMOR binding assay Ki.
[5] abbreviates: Table 20, radioligand binding, read-out: hKOR binding assay Ki.
Where [6] appears, read: Table 20, radioligand binding, read-out: hMOR binding assay Ki.
Where [7] appears, read: radioligand binding, [3H]diprenorphine, read-out: hKOR Ki.
The mark [8] stands for this setting: radioligand binding, [3H]diprenorphine, read-out: hMOR Ki.

Entries after “also recorded” stand apart in the source; their conditions may differ. Read-outs that look alike come from different tables or passages of the source.

T2 sequence (P35372 whole entry): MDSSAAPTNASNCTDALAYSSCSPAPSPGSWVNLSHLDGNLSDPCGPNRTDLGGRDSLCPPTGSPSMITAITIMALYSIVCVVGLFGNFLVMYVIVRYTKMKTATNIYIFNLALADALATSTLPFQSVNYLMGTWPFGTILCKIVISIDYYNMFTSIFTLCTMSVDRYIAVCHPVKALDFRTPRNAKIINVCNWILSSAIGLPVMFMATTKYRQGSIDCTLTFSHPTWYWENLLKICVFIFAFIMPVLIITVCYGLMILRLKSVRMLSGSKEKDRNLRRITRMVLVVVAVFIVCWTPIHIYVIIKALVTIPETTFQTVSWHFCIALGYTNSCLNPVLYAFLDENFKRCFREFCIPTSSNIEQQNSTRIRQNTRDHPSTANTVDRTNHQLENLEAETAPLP
T1 sequence (P41145 whole entry): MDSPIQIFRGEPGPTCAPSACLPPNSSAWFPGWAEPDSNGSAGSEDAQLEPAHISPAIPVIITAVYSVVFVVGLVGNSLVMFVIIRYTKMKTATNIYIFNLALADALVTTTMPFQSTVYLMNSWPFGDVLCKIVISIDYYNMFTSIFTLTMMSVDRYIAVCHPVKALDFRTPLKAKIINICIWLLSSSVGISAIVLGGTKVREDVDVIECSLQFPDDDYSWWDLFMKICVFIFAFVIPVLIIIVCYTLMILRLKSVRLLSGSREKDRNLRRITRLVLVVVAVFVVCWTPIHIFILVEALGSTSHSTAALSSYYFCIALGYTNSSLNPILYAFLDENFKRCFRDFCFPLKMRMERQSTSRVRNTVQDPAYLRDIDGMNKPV

One may read the Ki as the dissociation constant of the complex between target and ligand, obtained from inhibition or displacement. For the compound `Cc1nn(C)cc1C1CCCN1Cc1ccc(Oc2ccc(C(N)=O)cc2F)cc1` (single isomer, unassigned) [Example 5, 4-(4-{[2-(1,3-Dimethyl-1H-pyrazol-4-yl)pyrrolidin-1-yl]methyl}phenoxy)-3-fluorobenzamide], the Ki in experiment [1] (setting [3]) turned out to be 16.8 nM; in experiment [2] (setting [4]), 73.6 nM.

With `Cc1cc(C2CCCN2Cc2ccc(Oc3ccc(C(N)=O)cc3F)cc2)nn1C` (stereo not drawn) [Example 44], the “selectivity for KOR over MOR, in words” value in experiment [1] was “unacceptably lower levels of selectivity (MOR/KOR)”. Further, the Ki amounted to 14.5 nM in experiment [1] (setting [3]), 14.5 nM in experiment [1] (setting [5]), 127 nM in experiment [2] (setting [4]) and 127 nM in experiment [2] (setting [6]). The “Selectivity hMOR/hKOR” value in experiment [1] is 9.

For `Cc1c(C2CCCN2Cc2ccc(Oc3ccc(C(N)=O)cc3F)cc2)cnn1C` (single isomer, unassigned) [Example 35, 4-(4-{[2-(1,5-dimethyl-1H-pyrazol-4-yl)pyrrolidin-1-yl]methyl}phenoxy)-3-fluorobenzamide], the “selectivity for KOR over MOR (hMOR Ki divided by hKOR Ki)” value in experiment [1] was found to be 2.5 fold. Also, the Ki in experiment [1] (setting [3]) was 2.9 nM; in experiment [1] (setting [5]), 2.9 nM; in experiment [2] (setting [4]), 18.4 nM; in experiment [2] (setting [6]), 18.4 nM. Further, the “Selectivity hMOR/hKOR” value in experiment [1] is on record as 6.4.

For `Cc1nn(C)cc1C1CCCN1Cc1ccc(Oc2ccc(C(N)=O)c(O)c2)cc1` (single isomer, unassigned; (+)) [Example 17, (+)-4-(4-{[2-(1,3-Dimethyl-1H-pyrazol-4-yl)pyrrolidin-1-yl]methyl}phenoxy)-2-hydroxybenzamide], the Ki was 27 nM in experiment [1] (setting [3]) and 108 nM in experiment [2] (setting [4]).

For the compound `COc1nn(C)cc1C1CC(C)CN1Cc1ccc(Oc2ccc(C(N)=O)cc2F)cc1` (single isomer, unassigned) [Example 31, 3-fluoro-4-(4-{[2-(3-methoxy-1-methyl-1H-pyrazol-4-yl)-4-methylpyrrolidin-1-yl]methyl}phenoxy)benzamide], the values for the Ki in experiment [1] (setting [3]) and in experiment [2] (setting [4]) were 4.99 nM and 51.7 nM, respectively.

Take `COc1nn(C)cc1C1CCCN1Cc1ccc(Oc2ccc(C(N)=O)c(O)c2)cc1` (single isomer, unassigned) [Example 33, 2-hydroxy-4-(4-{[2-(3-methoxy-1-methyl-1H-pyrazol-4-yl)pyrrolidin-1-yl]methyl}phenoxy)benzamide]: the Ki came out at 1.69 nM in experiment [1] (setting [3]) and 52.2 nM in experiment [2] (setting [4]).

As to `Cc1cc(C2CCCN2Cc2ccc(Oc3ccc(C(N)=O)cc3F)cc2)no1` (stereo not drawn) [Example 40], the “KOR potency, in words” value in experiment [1] was “low KOR potency”. The Ki in experiment [1] (setting [3]) was 139 nM; in experiment [1] (setting [5]), 139 nM; in experiment [2] (setting [4]), 299 nM; in experiment [2] (setting [6]), 299 nM. Moreover, the “Selectivity hMOR/hKOR” value in experiment [1] is recorded as 2.2.

`Cc1nn(C)cc1C1CC(F)CN1Cc1ccc(Oc2ccc(C(N)=O)cc2)cc1` (single isomer, unassigned) [Example 26, 4-(4-{[2-(1,3-dimethyl-1H-pyrazol-4-yl)-4-fluoropyrrolidin-1-yl]methyl}phenoxy) benzamide]: the Ki in experiment [1] (setting [3]) is 10.5 nM; in experiment [2] (setting [4]) it was > 526 nM.

As for `COc1n[nH]cc1C1CCCN1Cc1ccc(Oc2ccc(C(N)=O)cc2)cc1` (single isomer, unassigned; (+)) [Example 15, (+)-4-(4-{[2-(3-Methoxy-1H-pyrazol-4-yl)pyrrolidin-1-yl]methyl}phenoxy)benzamide], the Ki is 23.2 nM in experiment [1] (setting [3]) and 150 nM in experiment [2] (setting [4]).

Take `Cc1nc([C@@H]2CCCN2Cc2ccc(Oc3ccc(C(N)=O)cc3)cc2)ns1` [Example 10, 4-(4-{[(2S)-2-(5-Methyl-1,2,4-thiadiazol-3-yl)pyrrolidin-1-yl]methyl}phenoxy)benzamide]: the “KOR potency, in words” value in experiment [1] is “good potency”. For the same compound, the “selectivity for KOR over MOR, in words” value in experiment [1] was “good potency and selectivity; also recorded: more selective than the phenyl examples, Comparators A and B”. Also, the Ki stood at 4 nM in experiment [1] (setting [3]), 4 nM in experiment [1] (setting [5]), 218 nM in experiment [2] (setting [4]) and 218 nM in experiment [2] (setting [6]). Besides, in experiment [1], the “Selectivity hMOR/hKOR” value is recorded as 54.

For `Cn1ccc([C@@H]2CCCN2Cc2ccc(Oc3ccc(C(N)=O)c(O)c3)cc2)n1` [Example 34, 2-hydroxy-4-(4-{[(2S)-2-(1-methyl-1H-pyrazol-3-yl)pyrrolidin-1-yl]methyl}phenoxy) benzamide], the figures for the Ki in experiment [1] (setting [3]) and in experiment [2] (setting [4]) were 0.508 nM and 3.98 nM, respectively.

Turning to `COc1nn(C)cc1C1CC(C)CN1Cc1ccc(Oc2ccc(C(N)=O)cc2F)cc1` (single isomer, unassigned) [Example 29, 3-fluoro-4-(4-{[2-(3-methoxy-1-methyl-1H-pyrazol-4-yl)-4-methylpyrrolidin-1-yl]methyl}phenoxy)benzamide], the figures for the Ki in experiment [1] (setting [3]) and in experiment [2] (setting [4]) were 0.498 nM and 10.6 nM, respectively.

`COc1nn(C)cc1C1CC(C)CN1Cc1ccc(Oc2ccc(C(N)=O)cc2F)cc1` (single isomer, unassigned) [Example 28, 3-fluoro-4-(4-{[2-(3-methoxy-1-methyl-1H-pyrazol-4-yl)-4-methylpyrrolidin-1-yl]methyl}phenoxy)benzamide]: the inhibition constant Ki in experiment [1] (setting [3]) was 4.88 nM; in experiment [2] (setting [4]), 77.9 nM.

With `Cc1nsc(C2CCCN2Cc2ccc(Oc3ccc(C(N)=O)cc3)cc2)n1` (single isomer, unassigned) [enantiomer of Example 41, 4-(4-{[2-(3-methyl-1,2,4-thiadiazol-5-yl)pyrrolidin-1-yl]methyl}phenoxy)benzamide], the results for the Ki in experiment [1] (setting [7]) and in experiment [2] (setting [8]) were > 388 nM and > 558 nM, respectively.

`Cc1nsc(C2CCCN2Cc2ccc(Oc3ccc(C(N)=O)cc3)cc2)n1` (single isomer, unassigned) [Example 41, 4-(4-{[2-(3-methyl-1,2,4-thiadiazol-5-yl)pyrrolidin-1-yl]methyl}phenoxy)benzamide]: the Ki is 85.8 nM in experiment [1] (setting [3]), > 100 nM in experiment [1] (setting [7]), 2730 nM in experiment [2] (setting [4]) and 2730 nM in experiment [2] (setting [6]). In addition, the “Selectivity hMOR/hKOR” value in experiment [1] is listed as 32.

With `COc1nn(C)cc1C1COCCN1Cc1ccc(Oc2ccc(C(N)=O)cc2F)cc1` (single isomer, unassigned) [enantiomer of Example 20, 3-fluoro-4-(4-{[3-(3-methoxy-1-methyl-1H-pyrazol-4-yl)morpholin-4-yl]methyl}phenoxy)benzamide], the figures for the Ki in experiment [1] (setting [7]) and in experiment [2] (setting [8]) were 145 nM and > 564 nM, respectively.

Turning to `COc1nn(C)cc1C1CCCN1Cc1ccc(Oc2ccc(C(N)=O)c(O)c2)cc1` (single isomer, unassigned) [enantiomer of Example 33, 2-hydroxy-4-(4-{[2-(3-methoxy-1-methyl-1H-pyrazol-4-yl)pyrrolidin-1-yl]methyl}phenoxy)benzamide], the results for the Ki in experiment [1] (setting [7]) and in experiment [2] (setting [8]) were 28.7 nM and 308 nM, respectively.

On to `COc1nn(C)cc1C1CC(C)CN1Cc1ccc(Oc2ccc(C(N)=O)cc2F)cc1` (single isomer, unassigned) [Example 30, 3-fluoro-4-(4-{[2-(3-methoxy-1-methyl-1H-pyrazol-4-yl)-4-methylpyrrolidin-1-yl]methyl}phenoxy)benzamide], for which the Ki turned out to be 0.417 nM in experiment [1] (setting [3]) and 9.59 nM in experiment [2] (setting [4]).

For the compound `COc1nn(C)cc1C1CCCCN1Cc1ccc(Oc2ccc(C(N)=O)cc2)cc1` (single isomer, unassigned) [enantiomer of Example 21, 4-(4-{[2-(3-methoxy-1-methyl-1H-pyrazol-4-yl)piperidin-1-yl]methyl}phenoxy)benzamide], the Ki turned out to be 15.5 nM in experiment [1] (setting [7]) and 135 nM in experiment [2] (setting [8]).

With `COc1nn(C)cc1C1CCCN1Cc1ccc(Oc2ccc(C(N)=O)cc2F)cc1` (racemic) [Example 7, (+/−)-3-Fluoro-4-(4-{[2-(3-methoxy-1-methyl-1H-pyrazol-4-yl)pyrrolidin-1-yl]methyl}phenoxy)benzamide], the Ki is 5.71 nM in experiment [1] (setting [3]) and 196 nM in experiment [2] (setting [4]).
